Consider 20 compounds from patent publication US8658646B2, “Pyrrolopyrazine kinase inhibitors” (Hoffmann-LaRoche Inc., priority 2011, dated 2014).

pIC50: −log10 of the molar value.

T1 sequence (P52333 822-1111 limits assumed): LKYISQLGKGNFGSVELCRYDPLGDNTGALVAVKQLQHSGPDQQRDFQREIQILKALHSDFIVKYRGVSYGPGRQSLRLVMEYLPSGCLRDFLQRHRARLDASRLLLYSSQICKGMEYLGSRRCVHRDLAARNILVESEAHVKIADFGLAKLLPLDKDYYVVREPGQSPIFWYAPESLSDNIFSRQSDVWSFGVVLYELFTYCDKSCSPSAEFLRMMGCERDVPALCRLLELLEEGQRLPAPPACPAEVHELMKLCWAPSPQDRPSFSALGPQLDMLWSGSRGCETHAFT

This experiment addresses T1, JAK3: Recombinant human kinase domain (Homo sapiens, UniProt P52333).
T1 construct: JAK3: Recombinant human kinase domain from Millipore (Cat #14-629) or prepared; purchased Millipore 14-629
Kind of experiment: Determination of IC50 of Janus Kinase (JAK) inhibition, radioactive end-point 33P-ATP assay, JAK3. It counts as biochemical. As to conditions: ATP 1.5 uM, peptide 50 uM, 20 minutes, read-out: JAK3-INHIB-DR/v1~NO ADDITIVE~Enzyme_Conc = 100.
Regarding `C[C@@H](COCC#N)NC(=O)c1c[nH]c2ncc(-c3nn(C)c4cc(F)ccc34)nc12` [Example I-219, 2-(6-Fluoro-1-methyl-1H-indazol-3-yl)-5H-pyrrolo[2,3-b]pyrazine-7-carboxylic acid ((S)-2-cyanomethoxy-1-methyl-ethyl)-amide], the pIC50 is 8.52.
For `C[C@@H](NC(=O)c1c[nH]c2ncc(-c3cnc4ccccn34)nc12)C(=O)N1CC(C#N)C1` [Example I-220, 2-Imidazo[1,2-a]pyridin-3-yl-5H-pyrrolo[2,3-b]pyrazine-7-carboxylic acid [(R)-2-(3-cyano-azetidin-1-yl)-1-methyl-2-oxo-ethyl]-amide], the pIC50 is 8.66.
Take `COC[C@H](C)NC(=O)c1c[nH]c2ncc(-c3cnc4cc(C#N)ccn34)nc12` [Example I-222, 2-(7-Cyano-imidazo[1,2-a]pyridin-3-yl)-5H-pyrrolo[2,3-b]pyrazine-7-carboxylic acid ((S)-2-methoxy-1-methyl-ethyl)-amide]: the pIC50 was 8.00.
Consider `C[C@@H](NC(=O)c1c[nH]c2ncc(-n3cnc4cc(Cl)ccc43)nc12)C(=O)N1CC(C#N)C1` [Example I-225, 2-(5-Chloro-benzoimidazol-1-yl)-5H-pyrrolo[2,3-b]pyrazine-7-carboxylic acid [(R)-2-(3-cyano-azetidin-1-yl)-1-methyl-2-oxo-ethyl]-amide], for which the pIC50 was 6.84.
Then `C[C@@H](NC(=O)c1c[nH]c2ncc(-c3nn(CC(=O)O)c4cc(Cl)ccc34)nc12)C(=O)N1CC(C#N)C1` [Example I-226, (6-Chloro-3-{7-[(R)-2-(3-cyano-azetidin-1-yl)-1-methyl-2-oxo-ethylcarbamoyl]-5H-pyrrolo[2,3-b]pyrazin-2-yl}-indazol-1-yl)-acetic acid], with 8.09; and `C[C@@H](NC(=O)c1c[nH]c2ncc(-c3nn(CC(=O)N(C)C)c4cc(Cl)ccc34)nc12)C(=O)N1CC(C#N)C1` [Example I-227, 2-(6-Chloro-1-dimethylcarbamoylmethyl-1H-indazol-3-yl)-5H-pyrrolo[2,3-b]pyrazine-7-carboxylic acid [(R)-2-(3-cyano-azetidin-1-yl)-1-methyl-2-oxo-ethyl]-amide], with 8.38.
As for `C[C@@H](NC(=O)c1c[nH]c2ncc(-c3nn(CC(=O)N4CCOCC4)c4cc(Cl)ccc34)nc12)C(=O)N1CC(C#N)C1` [Example I-228, 2-[6-Chloro-1-(2-morpholin-4-yl-2-oxo-ethyl)-1H-indazol-3-yl]-5H-pyrrolo[2,3-b]pyrazine-7-carboxylic acid [(R)-2-(3-cyano-azetidin-1-yl)-1-methyl-2-oxo-ethyl]-amide], the pIC50 was 8.68.
As for `C[C@@H](NC(=O)c1c[nH]c2ncc(-c3nn(CCN(C)C)c4cc(Cl)ccc34)nc12)C(=O)N1CC(C#N)C1` [Example I-229, 2-[6-Chloro-1-(2-dimethylamino-ethyl)-1H-indazol-3-yl]-5H-pyrrolo[2,3-b]pyrazine-7-carboxylic acid [(R)-2-(3-cyano-azetidin-1-yl)-1-methyl-2-oxo-ethyl]-amide], the pIC50 is 8.48.
As to `C[C@@H](NC(=O)c1c[nH]c2ncc(-c3nn(CCN(C)C)c4cc(Cl)ccc34)nc12)C(=O)N1CC(C#N)C1` [Example I-230, 2-[6-Chloro-1-(2-dimethylamino-ethyl)-1H-indazol-3-yl]-5H-pyrrolo[2,3-b]pyrazine-7-carboxylic acid [(R)-2-(3-cyano-azetidin-1-yl)-1-methyl-2-oxo-ethyl]-amide], the pIC50 was 7.91.
For the compound `C[C@@H](NC(=O)c1c[nH]c2ncc(-c3nn(CCN4CCOCC4)c4cc(Cl)ccc34)nc12)C(=O)N1CC(C#N)C1` [Example I-231, 2-[6-Chloro-1-(2-morpholin-4-yl-ethyl)-1H-indazol-3-yl]-5H-pyrrolo[2,3-b]pyrazine-7-carboxylic acid [(R)-2-(3-cyano-azetidin-1-yl)-1-methyl-2-oxo-ethyl]-amide], the pIC50 is 8.68.
For the compound `C[C@@H](NC(=O)c1c[nH]c2ncc(-c3nn(CCc4ccccn4)c4cc(Cl)ccc34)nc12)C(=O)N1CC(C#N)C1` [Example I-232, 2-[6-Chloro-1-(2-pyridin-2-yl-ethyl)-1H-indazol-3-yl]-5H-pyrrolo[2,3-b]pyrazine-7-carboxylic acid [(R)-2-(3-cyano-azetidin-1-yl)-1-methyl-2-oxo-ethyl)-amide], the pIC50 is 8.45.
Take `C[C@@H](NC(=O)c1c[nH]c2ncc(-c3nn(Cc4ccccn4)c4cc(Cl)ccc34)nc12)C(=O)N1CC(C#N)C1` [Example I-233, 2-(6-Chloro-1-pyridin-2-ylmethyl-1H-indazol-3-yl)-5H-pyrrolo[2,3-b]pyrazine-7-carboxylic acid [(R)-2-(3-cyano-azetidin-1-yl)-1-methyl-2-oxo-ethyl]-amide]: the pIC50 was 8.89.
As for `COC[C@H](C)NC(=O)c1c[nH]c2ncc(-c3nn(Cc4cccnc4)c4cc(Cl)ccc34)nc12` [Example I-235, 2-(6-Chloro-1-pyridin-3-ylmethyl-1H-indazol-3-yl)-5H-pyrrolo[2,3-b]pyrazine-7-carboxylic acid ((S)-2-methoxy-1-methyl-ethyl)-amide], the pIC50 was 9.31.
Consider `COC[C@H](C)NC(=O)c1c[nH]c2ncc(-c3nn(CCN4CCOCC4)c4cc(Cl)ccc34)nc12` [Example I-236, 2-[6-Chloro-1-(2-morpholin-4-yl-ethyl)-1H-indazol-3-yl]-5H-pyrrolo[2,3-b]pyrazine-7-carboxylic acid ((S)-2-methoxy-1-methyl-ethyl)-amide], for which the pIC50 was 9.09.
Consider `COC[C@H](C)NC(=O)c1c[nH]c2ncc(-c3nn(CCN4CCOCC4)c4cc(F)ccc34)nc12` [Example I-238, 2-[6-Fluoro-1-(2-morpholin-4-yl-ethyl)-1H-indazol-3-yl]-5H-pyrrolo[2,3-b]pyrazine-7-carboxylic acid ((S)-2-methoxy-1-methyl-ethyl)-amide], for which the pIC50 is 9.09.
As to `COC[C@H](C)NC(=O)c1c[nH]c2ncc(-c3nn(CCN(C)C)c4cc(F)ccc34)nc12` [Example I-239, 2-[1-(2-Dimethylamino-ethyl)-6-fluoro-1H-indazol-3-yl]-5H-pyrrolo[2,3-b]pyrazine-7-carboxylic acid ((S)-2-methoxy-1-methyl-ethyl)-amide], the pIC50 was 8.74.
For the compound `COC[C@H](C)NC(=O)c1c[nH]c2ncc(-c3nn(Cc4ccccn4)c4cc(F)ccc34)nc12` [Example I-240, 2-(6-Fluoro-1-pyridin-2-ylmethyl-1H-indazol-3-yl)-5H-pyrrolo[2,3-b]pyrazine-7-carboxylic acid ((S)-2-methoxy-1-methyl-ethyl)-amide], the pIC50 was 9.21.
Consider `Cn1nc(-c2cnc3[nH]cc(C(=O)NC(C)(C)C)c3n2)c2cc(OC(F)F)ccc21` [Example I-284, 2-(5-Difluoromethoxy-1-methyl-1H-indazol-3-yl)-5H-pyrrolo[2,3-b]pyrazine-7-carboxylic acid tert-butylamide], for which the pIC50 is 7.15.
As for `Cn1nc(-c2cnc3[nH]cc(C(=O)NC(C)(C)C)c3n2)c2ccc(Cl)cc21` [Example I-305, 2-(6-Chloro-1-methyl-1H-indazol-3-yl)-5H-pyrrolo[2,3-b]pyrazine-7-carboxylic acid tert-butylamide], the pIC50 is 6.35.
`CC(C)NC(=O)c1c[nH]c2ncc(-c3nn(CC4CC4)c4cc(Cl)ccc34)nc12` [Example I-309, 2-(6-Chloro-1-cyclopropylmethyl-1H-indazol-3-yl)-5H-pyrrolo[2,3-b]pyrazine-7-carboxylic acid isopropylamide]: the pIC50 is 7.54.
